Measurements: the supplement of paper PMC10307832

What was measured:
Assay in all cases: relative viability (nuclei count vs DMSO), 5 days (fraction); higher = more cells survive
[1] = compound: COc1cc(Nc2ncc(F)c(Nc3ccc4c(n3)NC(=O)C(C)(C)O4)n2)cc(OC)c1OC [R406] + O=C(CCCCCCC(=O)Nc1ccccc1)NO [Vorinostat] (partner 1 µM)
How it was run: (§1)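 A single step with final 0.05% Triton X-100, 1% formaldehyde and 1 ug/ml Hoechst fixed the cells and stained nuclei 5 days after treatment. Lung cancer cell lines in 1536-well plates had been treated by pin tool the day after seeding with one drug alone or a fixed anchor-drug dose plus five library-drug doses (not always all listed) in √10 steps, and nuclei were counted on 4× images. Relative viability is the ratio of nuclei in treated wells to nuclei in vehicle wells, taken as the median of duplicate plates.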

[2] = compound: O=C(/C=C/c1cccnc1)NCCCCC1CCN(C(=O)c2ccccc2)CC1 [Daporinad] + N=C(N)NC(=N)NCCc1ccccc1 [Phenformin] (partner 250 µM)
How it was run: as §1

[3] = compound: O=C(/C=C/c1cccnc1)NCCCCC1CCN(C(=O)c2ccccc2)CC1 [Daporinad] + NC(=O)Nc1cc(-c2cccc(F)c2)sc1C(=O)N[C@H]1CCCNC1 [AZD7762] (partner 0.2 µM)
How it was run: as §1

[4] = compound: COc1cc(Nc2ncc(F)c(Nc3ccc4c(n3)NC(=O)C(C)(C)O4)n2)cc(OC)c1OC [R406] + CC(C)C[C@H](NC(=O)[C@H](Cc1ccccc1)NC(=O)c1cnccn1)B(O)O [Bortezomib] (partner 0.002 µM)
How it was run: as §1

Row | Cell Line | relative viability ([1]; first compound 0.08 µM) | relative viability ([1]; first compound 0.253 µM) | relative viability ([1]; first compound 0.8 µM) | relative viability ([1]; first compound 2.53 µM) | relative viability ([1]; first compound 8 µM) | relative viability ([2]; first compound 0.0005 µM) | relative viability ([2]; first compound 0.001581 µM) | relative viability ([2]; first compound 0.005 µM) | relative viability ([2]; first compound 0.01581 µM) | relative viability ([3]; first compound 0.0005 µM) | relative viability ([3]; first compound 0.005 µM) | relative viability ([3]; first compound 0.01581 µM) | relative viability ([4]; first compound 0.08 µM) | relative viability ([4]; first compound 0.253 µM) | relative viability ([4]; first compound 0.8 µM) | relative viability ([4]; first compound 2.53 µM) | relative viability ([4]; first compound 8 µM) | relative viability ([3]; first compound 0.001581 µM)
1 | SK-MES-1 | 1.05 | 1.14 | 1.21 | 0.996 | 0.158 | 0.657 | 0.695 | 0.738 | 0.545 |  |  |  |  |  |  |  |  | 
2 | SW 900 | 0.475 | 0.844 | 0.577 | 0.134 | 0.15 | 0.518 | 0.674 | 0.798 | 0.595 | 0.647 | 0.72 | 0.654 |  |  |  |  |  | 
3 | A549 |  |  |  |  |  | 0.216 | 0.253 | 0.133 | 0.156 |  |  |  |  |  |  |  |  | 
4 | NCI-H1792 |  |  |  |  |  |  | 0.582 | 0.222 | 0.68 | 0.55 | 0.756 | 0.955 | 0.981 | 0.909 | 1.04 | 0.851 | 0.861 | 0.702
5 | NCI-H1703 |  |  |  |  |  |  |  |  |  | 0.134 | 0.155 | 0.142 | 0.451 | 0.32 | 0.588 | 0.183 | 0.167 | 0.123
6 | SW 1573 | 0.57 | 1.18 | 0.947 | 0.658 | 0.305 | 0.352 | 0.383 | 0.232 | 0.18 |  |  |  | 0.994 | 1.23 | 1.35 | 0.768 | 0.569 | 
7 | COR-L 105 | 0.743 | 0.893 | 0.824 | 0.651 | 0.514 | 0.491 | 0.485 | 0.545 | 0.607 |  |  |  | 0.68 | 0.84 | 1.06 | 0.315 | 0.246 | 
8 | Calu-6 |  |  |  |  |  |  |  |  |  |  |  |  | 0.997 | 1.06 | 1.04 | 0.631 | 0.557 | 
9 | SK-LU-1 | 0.84 | 0.822 | 0.764 | 0.555 | 0.155 | 0.444 | 0.649 | 0.628 | 0.662 |  |  |  | 1.16 | 1.32 | 1.09 | 0.384 | 0.544 | 
10 | NCI-H1944 | 0.504 | 0.585 | 0.566 | 0.466 | 0.45 | 0.206 | 0.219 | 0.214 | 0.241 | 0.474 | 0.6 | 0.579 |  |  |  |  |  | 0.453
11 | NCI-H1648 | 0.457 | 0.427 | 0.562 | 0.468 | 0.643 |  |  |  |  | 0.649 | 0.674 | 0.653 |  |  |  |  |  | 0.577
12 | NCI-H358 | 0.766 | 0.726 | 0.722 | 0.314 | 0.273 | 0.297 | 0.404 | 0.445 | 0.303 | 0.473 | 0.506 | 0.67 |  |  |  |  |  | 0.584
